From PMC4008261, “Rewiring of regenerated axons by combining treadmill training with semaphorin3A inhibition” (Molecular Brain, 2014)
pIC50: −log10 of the molar value.

Experiments:
IGF-1R = IGF-1R (Homo sapiens, UniProt P08069); test: Kinase inhibition test; assay type: biochemical
Excerpt: (§1) Table 2 Pharmacological profile of SM-345431 (part 2) | column: IC50 (μm)

FGFR2 = FGFR2 (Homo sapiens, UniProt P21802); test: Kinase inhibition test; assay type: biochemical
Excerpt: as §1

GSK3β = GSK3β (Homo sapiens, UniProt P49841); test: Kinase inhibition test; assay type: biochemical
Excerpt: as §1

cSRC = cSRC (Homo sapiens, UniProt P12931); test: Kinase inhibition test; assay type: biochemical
Excerpt: as §1

PKBβ = PKBβ (Homo sapiens, UniProt P31751); test: Kinase inhibition test; assay type: biochemical
Excerpt: as §1

SCT adult rats [1] = test: Kinematic analysis before and after re-transection; assay type: in vivo, rat
Protocol: A total of 53 adult female Sprague-Dawley rats (200-250 g, 10-12 weeks old) were used in this study (3 rats died during the experimental period and were excluded from the statistical analysis). All procedures were approved by the experimental animal care committee of Keio University, School of Medicine and Murayama Medical Center (approval #12-8). All rats were anesthetized with an intraperitoneal injection of ketamine (100 mg/kg)/xylazine (10 mg/kg). The spinal cord at the level of the T10 lamina was exposed by T10 laminectomy, and the dorsal dura mater was opened. The exposed spinal cord was cut along the inner edge of the vertebra with a sharp micro-scissor. […] Kinematic data were recorded using similar procedures prior to re-transection surgery (on the same day) and on the day following re-transection surgery. […]
To evaluate the locomotor capability of SCT rats in detail, the aforementioned robotic device was employed. Each robotic arm tracked the two-dimensional movement of the ankle, and the trajectory of the ankle movement was then recorded on a computer for kinematic analyses. […] Briefly, the ankle trajectory in each plane was recorded by the robotic arm and a computer. […] All kinematic characteristics were obtained when TO and PC were identified; as a result, parameters such as the duration phase, the swing phase of the step cycle and the length and height of the step were calculated. […]

SCT adult rats [2] = test: Lumbar spinal circuitry after SCT (c-Fos and synapsin-1 immunostaining); assay type: in vivo, rat
Protocol: (§2) Rats were randomly divided into the following three experimental groups: 1) untrained + placebo, 2) untrained + SM-345431 and 3) trained + SM-345431. SCT was performed, and SM-345431 or placebo was administered at the lesion site via the newly developed DDS, which is described in detail below. Starting 1 week post-injury, treadmill training commenced with a BSS. Kinematic tests were performed monthly for 3 months after SCT using a rodent robotic device (Rodent robot 3000, Robomedica Inc.) that primarily assessed the performance of plantar stepping on a treadmill. Treadmill training was continued throughout the experimental period.
A total of 53 adult female Sprague-Dawley rats (200-250 g, 10-12 weeks old) were used in this study (3 rats died during the experimental period and were excluded from the statistical analysis). All procedures were approved by the experimental animal care committee of Keio University, School of Medicine and Murayama Medical Center (approval #12-8). All rats were anesthetized with an intraperitoneal injection of ketamine (100 mg/kg)/xylazine (10 mg/kg). The spinal cord at the level of the T10 lamina was exposed by T10 laminectomy, and the dorsal dura mater was opened. The exposed spinal cord was cut along the inner edge of the vertebra with a sharp micro-scissor. Two more cuts were made at the gap of the transected spinal cord by a scalpel to ensure total transection. SM-345431 or placebo was administered to the transected site via the newly developed DDS as described in detail below (Figure 1G-I). After these procedures, the back muscles and skin were closed. Rats were kept warm in an incubator (37°C) after surgery. To prevent dehydration in the rats, 10 ml of saline was subcutaneously injected daily until day 7. Ampicillin (0.4 g/kg) was also injected intramuscularly daily to prevent infection until day 7. The bladder was evacuated manually until autonomous emptying of the bladder was achieved. The re-transection procedure was performed at the same level as the primary SCT (15 rats total; 5 rats from each group). Kinematic data were recorded using similar procedures prior to re-transection surgery (on the same day) and on the day following re-transection surgery. For CST tracing, 10% BDA was injected as follows. Nine weeks after SM-345431 or placebo administration, BDA (10000 MW, Molecular Probes) was injected into six different sites of the sensorimotor cortices of the rats under general anesthesia (site 1: 2.0 mm lateral, 0 mm to bregma; site 2: 2.0 mm lateral, 2 mm posterior to bregma; site 3: 2.0 mm lateral, 4 mm posterior to bregma; site 4: 4 mm lateral, 0 mm to bregma; site 5: 4 mm lateral, 2 mm posterior to bregma and site 6: 4 mm lateral, 4 mm posterior to bregma). […]

SCT adult rats [3] = test: Axonal regeneration after SCT (GAP43, 5-HT/GFAP immunostaining, BDA tracing); assay type: in vivo, rat; details: for number of GAP43 axons versus control: especially 1 mm caudal to the injury epicenter
Protocol: as §2
A total of 53 adult female Sprague-Dawley rats (200-250 g, 10-12 weeks old) were used in this study (3 rats died during the experimental period and were excluded from the statistical analysis). All procedures were approved by the experimental animal care committee of Keio University, School of Medicine and Murayama Medical Center (approval #12-8). All rats were anesthetized with an intraperitoneal injection of ketamine (100 mg/kg)/xylazine (10 mg/kg). The spinal cord at the level of the T10 lamina was exposed by T10 laminectomy, and the dorsal dura mater was opened. The exposed spinal cord was cut along the inner edge of the vertebra with a sharp micro-scissor. Two more cuts were made at the gap of the transected spinal cord by a scalpel to ensure total transection. SM-345431 or placebo was administered to the transected site via the newly developed DDS as described in detail below (Figure 1G-I). After these procedures, the back muscles and skin were closed. Rats were kept warm in an incubator (37°C) after surgery. To prevent dehydration in the rats, 10 ml of saline was subcutaneously injected daily until day 7. Ampicillin (0.4 g/kg) was also injected intramuscularly daily to prevent infection until day 7. The bladder was evacuated manually until autonomous emptying of the bladder was achieved. The re-transection procedure was performed at the same level as the primary SCT (15 rats total; 5 rats from each group). Kinematic data were recorded using similar procedures prior to re-transection surgery (on the same day) and on the day following re-transection surgery. For CST tracing, 10% BDA was injected as follows. Nine weeks after SM-345431 or placebo administration, BDA (10000 MW, Molecular Probes) was injected into six different sites of the sensorimotor cortices of the rats under general anesthesia (site 1: 2.0 mm lateral, 0 mm to bregma; site 2: 2.0 mm lateral, 2 mm posterior to bregma; site 3: 2.0 mm lateral, 4 mm posterior to bregma; site 4: 4 mm lateral, 0 mm to bregma; site 5: 4 mm lateral, 2 mm posterior to bregma and site 6: 4 mm lateral, 4 mm posterior to bregma). For each site, injections were performed at two different depths (1.2 mm and 1.6 mm), and 3 μl of 10% BDA was injected at a rate of 0.15 μl/min using a micro-injector. Three weeks after the BDA injection, rats were sacrificed and used for immunohistochemistry.
A novel matrix silicone preparation was developed to allow continuous drug delivery at the site of injury. The amount of drug released from this matrix silicone preparation in vitro was measured as described in Figure 1. Matrix silicone sheets (0.3 mm thick) containing SM-345431 were trimmed into 3-mm-square pieces to fit into the opened dura. After SCT, one piece of silicone sheet was placed on the transected spinal cord gap so that it could act on the spinal cord directly.
Twelve weeks after SCT, rats were deeply anaesthetized by an intraperitoneal injection of 14% chloral hydrate and then perfused intracardially with 4% paraformaldehyde (PFA) in 0.1 M phosphate-buffered saline (PBS). The spinal cord tissues were dissected and post-fixed in 4% PFA (24 h) and placed in 10% sucrose in 0.1 M PBS (24 h) followed by 30% sucrose in 0.1 M PBS (24 h). All the rats other than 3 rats died during the experimental period were used for the histological analysis. […]

[4] = SM-345431 combined with treadmill training
[5] = SM-345431 via silicone DDS alone

Sequence of GSK3β (P49841 whole entry, species assumed): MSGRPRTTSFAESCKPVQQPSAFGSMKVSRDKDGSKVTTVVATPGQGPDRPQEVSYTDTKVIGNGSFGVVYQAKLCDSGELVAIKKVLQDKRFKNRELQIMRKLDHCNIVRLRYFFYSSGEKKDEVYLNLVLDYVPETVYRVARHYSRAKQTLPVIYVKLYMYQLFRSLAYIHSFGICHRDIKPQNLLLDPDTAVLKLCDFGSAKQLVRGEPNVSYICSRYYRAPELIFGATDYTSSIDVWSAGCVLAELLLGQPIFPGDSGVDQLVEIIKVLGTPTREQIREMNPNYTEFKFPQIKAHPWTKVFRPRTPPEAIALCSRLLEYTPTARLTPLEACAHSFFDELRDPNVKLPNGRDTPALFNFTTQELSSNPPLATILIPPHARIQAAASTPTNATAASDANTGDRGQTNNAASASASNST
Sequence of IGF-1R (P08069 31-1367, species assumed): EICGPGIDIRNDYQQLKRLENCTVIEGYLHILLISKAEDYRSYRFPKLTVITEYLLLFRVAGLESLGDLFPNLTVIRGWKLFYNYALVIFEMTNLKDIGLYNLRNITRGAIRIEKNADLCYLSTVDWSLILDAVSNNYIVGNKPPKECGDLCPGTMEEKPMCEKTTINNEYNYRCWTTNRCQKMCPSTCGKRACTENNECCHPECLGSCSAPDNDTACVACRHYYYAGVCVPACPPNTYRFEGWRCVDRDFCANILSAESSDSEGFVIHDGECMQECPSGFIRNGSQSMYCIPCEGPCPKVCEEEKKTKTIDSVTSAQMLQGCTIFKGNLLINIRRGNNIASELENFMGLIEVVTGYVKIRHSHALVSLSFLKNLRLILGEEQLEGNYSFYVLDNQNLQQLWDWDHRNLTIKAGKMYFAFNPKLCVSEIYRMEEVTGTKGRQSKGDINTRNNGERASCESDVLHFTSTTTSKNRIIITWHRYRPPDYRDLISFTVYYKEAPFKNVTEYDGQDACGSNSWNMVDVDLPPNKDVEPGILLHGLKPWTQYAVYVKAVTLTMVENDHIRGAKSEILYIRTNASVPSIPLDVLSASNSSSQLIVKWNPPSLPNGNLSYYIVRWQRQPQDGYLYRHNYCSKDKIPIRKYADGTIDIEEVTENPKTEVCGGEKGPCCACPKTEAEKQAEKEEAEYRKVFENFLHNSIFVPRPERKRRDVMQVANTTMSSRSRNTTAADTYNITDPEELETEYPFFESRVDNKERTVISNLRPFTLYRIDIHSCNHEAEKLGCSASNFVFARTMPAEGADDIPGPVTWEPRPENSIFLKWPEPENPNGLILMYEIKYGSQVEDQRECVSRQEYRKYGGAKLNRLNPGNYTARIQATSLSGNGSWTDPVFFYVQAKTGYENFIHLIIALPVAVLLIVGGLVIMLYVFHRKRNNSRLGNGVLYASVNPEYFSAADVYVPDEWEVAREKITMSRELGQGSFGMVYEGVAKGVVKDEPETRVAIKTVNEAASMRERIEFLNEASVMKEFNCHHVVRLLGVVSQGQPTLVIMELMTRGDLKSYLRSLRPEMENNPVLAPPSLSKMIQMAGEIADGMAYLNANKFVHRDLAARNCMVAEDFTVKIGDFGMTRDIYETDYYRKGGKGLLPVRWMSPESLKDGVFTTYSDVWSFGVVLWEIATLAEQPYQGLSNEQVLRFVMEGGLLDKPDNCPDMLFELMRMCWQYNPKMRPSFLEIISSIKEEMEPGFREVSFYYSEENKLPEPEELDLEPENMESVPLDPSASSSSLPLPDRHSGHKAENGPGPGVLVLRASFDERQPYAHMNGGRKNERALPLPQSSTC
Sequence of FGFR2 (P21802 22-821, species assumed): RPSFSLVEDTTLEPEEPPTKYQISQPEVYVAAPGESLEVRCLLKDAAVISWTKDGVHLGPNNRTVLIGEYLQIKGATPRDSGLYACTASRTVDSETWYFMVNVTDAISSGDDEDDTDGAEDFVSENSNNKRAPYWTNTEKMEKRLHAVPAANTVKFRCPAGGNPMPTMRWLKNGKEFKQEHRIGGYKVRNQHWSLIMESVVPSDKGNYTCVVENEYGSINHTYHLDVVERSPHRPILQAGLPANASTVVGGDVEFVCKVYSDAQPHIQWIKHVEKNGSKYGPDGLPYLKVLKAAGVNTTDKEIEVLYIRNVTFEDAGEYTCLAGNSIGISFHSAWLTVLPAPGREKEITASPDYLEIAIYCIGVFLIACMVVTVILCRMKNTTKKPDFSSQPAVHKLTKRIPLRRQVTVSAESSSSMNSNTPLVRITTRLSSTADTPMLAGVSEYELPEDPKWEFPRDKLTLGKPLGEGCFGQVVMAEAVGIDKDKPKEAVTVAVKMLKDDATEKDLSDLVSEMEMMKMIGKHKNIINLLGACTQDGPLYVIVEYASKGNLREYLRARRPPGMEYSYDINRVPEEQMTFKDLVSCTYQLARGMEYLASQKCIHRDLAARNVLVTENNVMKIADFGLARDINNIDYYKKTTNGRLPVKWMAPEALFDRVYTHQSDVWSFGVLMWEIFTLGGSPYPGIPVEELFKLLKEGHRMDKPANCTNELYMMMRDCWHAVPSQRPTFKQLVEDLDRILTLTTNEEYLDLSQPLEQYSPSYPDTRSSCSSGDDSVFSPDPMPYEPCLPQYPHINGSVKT
Sequence of cSRC (P12931 whole entry, species assumed): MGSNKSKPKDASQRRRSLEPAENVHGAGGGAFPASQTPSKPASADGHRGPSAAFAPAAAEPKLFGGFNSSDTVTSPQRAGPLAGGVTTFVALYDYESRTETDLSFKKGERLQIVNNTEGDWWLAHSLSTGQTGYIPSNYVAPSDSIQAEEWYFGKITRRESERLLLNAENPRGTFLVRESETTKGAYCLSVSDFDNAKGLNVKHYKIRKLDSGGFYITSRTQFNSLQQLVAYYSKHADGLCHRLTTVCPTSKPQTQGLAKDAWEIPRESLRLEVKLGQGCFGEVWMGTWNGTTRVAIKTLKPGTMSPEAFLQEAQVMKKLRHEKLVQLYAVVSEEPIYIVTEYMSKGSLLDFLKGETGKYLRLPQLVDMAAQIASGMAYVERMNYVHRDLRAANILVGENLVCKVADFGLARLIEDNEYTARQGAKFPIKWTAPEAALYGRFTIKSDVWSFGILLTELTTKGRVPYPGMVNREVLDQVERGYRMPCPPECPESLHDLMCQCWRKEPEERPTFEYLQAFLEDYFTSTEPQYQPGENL
Sequence of PKBβ (P31751 whole entry, species assumed): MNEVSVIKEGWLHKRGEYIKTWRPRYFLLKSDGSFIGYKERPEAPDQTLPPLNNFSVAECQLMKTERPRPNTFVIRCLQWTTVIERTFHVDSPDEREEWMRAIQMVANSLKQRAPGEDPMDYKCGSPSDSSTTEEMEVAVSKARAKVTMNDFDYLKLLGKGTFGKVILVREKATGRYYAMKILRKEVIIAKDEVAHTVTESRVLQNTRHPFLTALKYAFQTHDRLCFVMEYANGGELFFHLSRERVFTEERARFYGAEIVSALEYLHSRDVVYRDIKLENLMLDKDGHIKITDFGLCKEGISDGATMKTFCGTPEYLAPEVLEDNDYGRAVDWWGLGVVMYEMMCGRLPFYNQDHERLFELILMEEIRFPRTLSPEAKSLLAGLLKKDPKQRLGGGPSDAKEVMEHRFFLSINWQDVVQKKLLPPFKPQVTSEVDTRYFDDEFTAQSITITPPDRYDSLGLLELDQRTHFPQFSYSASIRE

CC(=O)c1cc2c(=O)c3c(C(=O)O)c(O)c(O)cc3oc2c(C(C)=O)c1-c1coc2cc(O)c(O)c(C(=O)O)c2c1=O [SM-345431, Vinaxanthone]
pIC50 (IGF-1R): < 5.00 | pIC50 (FGFR2): < 5.00 | pIC50 (GSK3β): < 5.00 | pIC50 (cSRC): < 5.00 | pIC50 (PKBβ): < 5.00 | step cycle area after re-transection (SCT adult rats [1]; SM-345431 alone, re-transection 12 weeks after the initial injury): tended to be attenuated | step ability after re-transection (SCT adult rats [1]; SM-345431 combined with treadmill training, average step height P < 0.01, maximum step height P < 0.05): greater attenuations of step ability were observed | number of c-Fos + nuclei versus control SCI rats (SCT adult rats [2]; SM-345431 alone, L1-L5 levels, not statistically significant): tended to be lower | synapsin-1 expression at the lumbar enlargement versus control SCT group (SCT adult rats [2]; SM-345431 alone, P > 0.05): No statistically significant difference | number of c-Fos + nuclei versus control SCT rats (SCT adult rats [2]; SM-345431 combined with treadmill training, L4 and L5 levels, P < 0.01): statistically significant decrease | synapsin-1 expression at the lumbar enlargement (SCT adult rats [2]; SM-345431 combined with treadmill training, P < 0.01 vs control SCT, P < 0.05 vs SM-345431 group): statistically significant increase | 5-HT-positive axons penetrating the GFAP-negative scar tissue versus control (SCT adult rats [3]; [4]): significantly more 5-HT-positive axons penetrated the GFAP-negative scar tissue area | CST axon regeneration (BDA tracing) (SCT adult rats [3]; [4]): no clear CST regeneration beyond the lesion epicenter was observed | number of GAP43 axons versus control (SCT adult rats [3]; [4]): significantly increased | 5-HT-positive axons penetrating the GFAP-negative scar tissue versus control (SCT adult rats [3]; [5]): significantly more 5-HT-positive axons penetrated the GFAP-negative scar tissue area | CST axon regeneration (BDA tracing) (SCT adult rats [3]; [5]): no obvious CST regeneration beyond the lesion epicenter was observed | number of GAP43 axons versus control (SCT adult rats [3]; [5]): significantly increased
